Source: patent publication US5783703A, “Sulfur-containing compounds method for their use and prodction” (Lederle (Japan), Ltd., priority 1993, dated 1998)
≈ marks a conversion by molar mass, not a printed value.

How the values were obtained:
Assay in all cases: Antibacterial activity, agar plate dilution method (MIC), Experimental Example 2
Type in all cases: cell-based
[1] = tested on: B. subtilis ATCC 6633; settings: Bacillus subtilis, ATCC6633, MH agar, 37° C., 18 hours
Protocol: (§1) There was measured, by the following method, the antibacterial activity of the compound (16) which had been produced in Example 14 with use of the compound (I) of the present invention as a synthesis intermediate.
(§2) There was employed the agar plate dilution method in accordance with the standard method of the Japanese Chemotherapy Society [Chemotherapy, vol. 29, 76-79 (1981)]. Concretely, a Mueller-Hinton (MH) agar liquid medium containing the test microorganism was cultured overnight at 37° C., and the resultant culture medium was diluted with a buffered saline gelatin (BSG) solution so that the concentration of the test microorganism might be about […]. Then, with use of a microplanter, this diluted solution was inoculated each about 5 μl on MH agar media containing the test compounds. Thus, the minimum concentration of the test compound in which no growth of the test microorganism was observed after the incubation at 37° C. for 18 hours was regarded as Minimum Inhibitory Concentration (MIC). Incidentally, all of the test organisms used here were standard strains.

[2] = tested on: E. aerogenes ATCC 13048; settings: Klebsiella aerogenes, ATCC13048, MH agar, 37° C., 18 hours
Protocol: as §1, §2

[3] = tested on: E. cloacae 963; settings: Enterobacter cloacae, MH agar, 37° C., 18 hours
Protocol: as §1, §2

[4] = tested on: E. coli K-12 C600; settings: Escherichia coli, K12C600, MH agar, 37° C., 18 hours
Protocol: as §1, §2

[5] = tested on: E. coli NIHJ JC-2; settings: Escherichia coli, NIHJJC2, MH agar, 37° C., 18 hours
Protocol: as §1, §2

[6] = tested on: K. pneumoniae PCI-602; settings: Klebsiella pneumoniae, PCI602, MH agar, 37° C., 18 hours
Protocol: as §1, §2

[7] = tested on: M. luteus ATCC 9341; settings: Micrococcus luteus, ATCC9341, MH agar, 37° C., 18 hours
Protocol: as §1, §2

[8] = tested on: M. morganii IFO 3848; settings: Morganella morganii, IFO3848, MH agar, 37° C., 18 hours
Protocol: as §1, §2

[9] = tested on: P. mirabilis IFO 3849; settings: Proteus mirabilis, IFO3849, MH agar, 37° C., 18 hours
Protocol: as §1, §2

[10] = tested on: P. rettgeri IFO 3850; settings: Providencia rettgeri, IFO3850, MH agar, 37° C., 18 hours
Protocol: as §1, §2

[11] = tested on: P. vulgaris HX-19; settings: Proteus vulgaris, HX19, MH agar, 37° C., 18 hours
Protocol: as §1, §2

[12] = tested on: P. vulgaris OX-19; settings: Proteus vulgaris, OX19, MH agar, 37° C., 18 hours
Protocol: as §1, §2

[13] = tested on: S. aureus FDA209P JC-1; settings: Staphylococcus aureus, MH agar, 37° C., 18 hours
Protocol: as §1, §2

[14] = tested on: S. aureus MS353; settings: Staphylococcus aureus, MH agar, 37° C., 18 hours
Protocol: as §1, §2

[15] = tested on: S. aureus Terajima; settings: Staphylococcus aureus, MH agar, 37° C., 18 hours
Protocol: as §1, §2

[16] = tested on: S. enteritidis G14; settings: Salmonella enterica, MH agar, 37° C., 18 hours
Protocol: as §1, §2

[17] = tested on: S. marcescens IAM 1184; settings: Serratia marcescens, IAM1184, MH agar, 37° C., 18 hours
Protocol: as §1, §2

[18] = tested on: S. paratyphi 1015; settings: Salmonella enterica, 18 h
Protocol: as §1, §2

[19] = tested on: S. pyogenes Cook; settings: Streptococcus pyogenes, MH agar, 37° C., 18 hours
Protocol: as §1, §2

[20] = tested on: S. schottmuelleri 8006; settings: MH agar, 37° C., 18 hours
Protocol: as §1, §2

[21] = tested on: S. typhi 901; settings: Salmonella enterica, 18 h
Protocol: as §1, §2

[22] = tested on: S. typhimurium 11D971; settings: Salmonella enterica, MH agar, 37° C., 18 hours
Protocol: as §1, §2

C[C@@H](O)[C@H]1C(=O)N2C(C(=O)O)=C(SC3CN(C4=NCCS4)C3)[C@H](C)[C@H]12 [compound (16), (1R, 5S, 6S)-2-[1-(1,3-thiazolin-2-yl)azetidin-3-yl]thio-6-[(R)-1-hydroxyethyl]-1-methylcarbapen-2-em-3-carboxylate]
MIC [1]: 0.025 µg/mL (≈ 0.0652 µM) | MIC [2]: 0.1 µg/mL (≈ 0.261 µM) | MIC [3]: 0.05 µg/mL (≈ 0.13 µM) | MIC [4]: 0.1 µg/mL (≈ 0.261 µM) | MIC [5]: 0.013 µg/mL (≈ 0.0339 µM) | MIC [6]: 0.013 µg/mL (≈ 0.0339 µM) | MIC [7]: 0.2 µg/mL (≈ 0.522 µM) | MIC [8]: 0.39 µg/mL (≈ 1.02 µM) | MIC [9]: 0.39 µg/mL (≈ 1.02 µM) | MIC [10]: 0.39 µg/mL (≈ 1.02 µM) | MIC [11]: 0.1 µg/mL (≈ 0.261 µM) | MIC [12]: 0.1 µg/mL (≈ 0.261 µM) | MIC [13]: 0.013 µg/mL (≈ 0.0339 µM) | MIC [14]: ≤ 0.006 µg/mL | MIC [15]: ≤ 0.006 µg/mL | MIC [16]: 0.39 µg/mL (≈ 1.02 µM) | MIC [17]: 0.05 µg/mL (≈ 0.13 µM) | MIC [18]: 0.05 µg/mL (≈ 0.13 µM) | MIC [19]: ≤ 0.006 µg/mL | MIC [20]: 0.025 µg/mL (≈ 0.0652 µM) | MIC [21]: ≤ 0.006 µg/mL | MIC [22]: 0.025 µg/mL (≈ 0.0652 µM)
